A word on the IC50: it is the concentration that gives 50% inhibition.

Results on three compounds are retold here after article PMC11879040, “Advancing systemic toxicity risk assessment: Evaluation of a NAM-based toolbox approach” (Toxicological Sciences, 2024).

Read-outs that look alike come from different tables or passages of the source. Where only a bound is given, the exact number is not on record here.

Series [1] relates to Potassium Voltage-Gated Channel Kv non-selective, KCNQ1 (r). The series is described as follows: IPP KCNQ1 binding (antagonist radioligand). Also noted: species or system rat. The note with it: IPP screening at 100 uM; control α-dendrotoxin.
Series [2] relates to Gamma-aminobutyric acid receptor subunit alpha-1 BZD site, GABRA1A (r). The class given is binding, rat.
Series [3] deals with Sodium channel protein type 5 subunit alpha (site 2), SCN5A (r). The class given is binding, rat.
Series [4] addresses T1, Adenosine receptor A2a, ADORA2A (h) (Homo sapiens, UniProt P29274).
T1 construct: purchased Eurofins Cerep (SafetyScreen44-based IPP panel)
Kind of series: IPP ADORA2A binding (agonist radioligand). The note with it: IPP screening at 100 uM; control NECA.

Series [5] has as its system Thyroid hormone receptor alpha, THRA (h). Kind of series: IPP THRA coactivator recruitment (agonist). The class given is biochemical, human. The note with it: 100 uM; agonist; T3; * denotes assay interference (2-Amino-6-chloro-4-nitrophenol, HC Red 3).
For series [6], the system named is Tubulin (r). Kind of series: IPP Tubulin binding. Also noted: species or system rat. The note with it: 100 uM; ligand/control Colchicine.
Series [7] relates to HepG2 cells. The series is described as follows: Cell stress panel (CSP), 24 h, 8 concentrations, BIFROST global PoD. The class given is cell-based. The note with it: HepG2; cell stress panel PoD. As for the experimental part:
Compounds were tested using the previously developed cell stress panel ([Hatherell et al. 2020]) and the expanded biomarker panel outlined in Middleton et al. HepG2 cells were treated with all compounds for 24 h across 8 concentrations prior to biomarker analysis. The same plate layout and number of replicates (3 biological and 2 technical) were used as previously for each assay within the panel.

Series [8] has as its system HepG2 cells. Kind of series: High-throughput transcriptomics (HTTr, TempO-Seq), HepG2, 24 h. In kind it is cell-based, human. As for the experimental part: (§1) HepG2, HepaRG, and MCF7 cells were treated with each compound for 24 h across a dose range of 7 concentrations and lysed using TempO-Seq lysis buffer (BioSpyder Technologies, proprietary kit, see [Middleton et al. 2022] for method details). Sequencing was performed using TempO-Seq (BioClavis) version 2 of the human whole transcriptome panel and analyzed as described previously in Middleton et al.

The subject of series [9] is HepaRG cells. The series is described as follows: High-throughput transcriptomics (HTTr, TempO-Seq), HepaRG, 24 h. In kind it is cell-based, human. The note with it: HepaRG. As for the experimental part: as §1
The subject of series [10] is MCF7 cells. The series is described as follows: High-throughput transcriptomics (HTTr, TempO-Seq), MCF7, 24 h. The class given is cell-based, human. The conditions noted are these: MCF-7. As for the experimental part: as §1
The subject of series [11] is Glutamate receptor ionotropic NMDA 1 non-selective, GRIN1 (r).
For series [12] the following is noted: human.
Series [13] deals with monkey. The note with it: lifetime monkey study, 500 mg/kg bw/day, at 23 years; ref [19-22]; cited from earlier work.
The subject of series [14] is human. The conditions noted are these: 7 month human volunteer study; ref [19-22]; cited from earlier work.
For series [15] the following is noted: ref [19-22]; cited from earlier work.
Series [16] concerns the target Voltage-dependent L-type Ca2+ channel (dihydropyridine site), CACNA1C (r) (Rattus norvegicus, UniProt P22002). The class given is binding.
The conditions of series [17]: cited from earlier work.
For series [18] the following is noted: cited from earlier work. This is another data set of the same source.
Series [19] concerns the target Dopamine receptor D2, DRD2 (h) (Homo sapiens, UniProt P14416). Kind of series: biochemical.
Series [20] can be described thus: Assignment of risk classifications to benchmark chemical-exposure scenarios. The conditions noted are these: for risk: from table S1.
A short description of series [21]: intestinal absorption (PBK input). The class given is in vitro ADME. The note with it: levels L2/L3, converted from [36].
Series [22] deals with 63 targets with known safety liabilities. Kind of series: In vitro pharmacological profiling (IPP) panel, screening at 10 or 100 µM and dose response, minimum IC50/AC50. The class given is biochemical. The note with it: lowest AC50 across IPP panel (systemic targets); cell_type -; read-out: ipp_lowest_ac50_systemic PoD.
Series [23] relates to rat. The note with it: rat; repeat dose toxicity : oral; ref ToxRefDB/Paul-Friedman et al. (2020)/regulatory opinions; cited from earlier work.
The conditions of series [24]: PBK input, level L2; ref [10]; cited from earlier work.
Series [25] can be described thus: hepatic intrinsic clearance (Clint). The note with it: PBK input, levels L2/L3; scaled from [10].
Where [26] appears, read: IPP screening at 100 uM, control diazepam.
Where [27] appears, read: IV 10 mg infusion (8.9 mg), 6 healthy, calibration, ref Ross-Lee et al. 1981.
The mark [28] stands for this setting: IV 20 mg infusion (15.4 mg base), 8 healthy, validation, ref Magueur et al. 1991.
[29] abbreviates: Oral 10 mg tablet (8.9 mg), fasted, 6 healthy, calibration, ref Ross-Lee et al. 1981.
Where [30] appears, read: Oral 10 mg tablet (8.9 mg), fasted, 8 healthy male, validation, ref Bateman et al. 1980.
Setting [31] is: Oral 20 mg tablet (17 mg base), fasted, 8 healthy, validation, ref Magueur et al. 1991.
Setting [32] is: Oral 20 mg tablet (17.8 mg), fasted, 8 healthy male, validation, ref Bateman et al. 1980.

T1 sequence (P29274 whole entry): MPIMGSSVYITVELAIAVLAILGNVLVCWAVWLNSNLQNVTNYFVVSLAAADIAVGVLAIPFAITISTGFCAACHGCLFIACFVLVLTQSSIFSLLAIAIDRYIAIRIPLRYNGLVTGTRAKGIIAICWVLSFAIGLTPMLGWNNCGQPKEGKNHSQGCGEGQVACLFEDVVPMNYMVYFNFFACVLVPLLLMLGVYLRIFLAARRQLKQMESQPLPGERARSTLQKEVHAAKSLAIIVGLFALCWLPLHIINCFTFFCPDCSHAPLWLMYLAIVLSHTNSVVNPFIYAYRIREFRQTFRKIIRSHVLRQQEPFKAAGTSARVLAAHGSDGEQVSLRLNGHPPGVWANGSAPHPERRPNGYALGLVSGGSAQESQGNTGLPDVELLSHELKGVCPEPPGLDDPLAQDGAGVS
Chain of Voltage-dependent L-type Ca2+ channel (dihydropyridine site), CACNA1C (r) (P22002 whole entry): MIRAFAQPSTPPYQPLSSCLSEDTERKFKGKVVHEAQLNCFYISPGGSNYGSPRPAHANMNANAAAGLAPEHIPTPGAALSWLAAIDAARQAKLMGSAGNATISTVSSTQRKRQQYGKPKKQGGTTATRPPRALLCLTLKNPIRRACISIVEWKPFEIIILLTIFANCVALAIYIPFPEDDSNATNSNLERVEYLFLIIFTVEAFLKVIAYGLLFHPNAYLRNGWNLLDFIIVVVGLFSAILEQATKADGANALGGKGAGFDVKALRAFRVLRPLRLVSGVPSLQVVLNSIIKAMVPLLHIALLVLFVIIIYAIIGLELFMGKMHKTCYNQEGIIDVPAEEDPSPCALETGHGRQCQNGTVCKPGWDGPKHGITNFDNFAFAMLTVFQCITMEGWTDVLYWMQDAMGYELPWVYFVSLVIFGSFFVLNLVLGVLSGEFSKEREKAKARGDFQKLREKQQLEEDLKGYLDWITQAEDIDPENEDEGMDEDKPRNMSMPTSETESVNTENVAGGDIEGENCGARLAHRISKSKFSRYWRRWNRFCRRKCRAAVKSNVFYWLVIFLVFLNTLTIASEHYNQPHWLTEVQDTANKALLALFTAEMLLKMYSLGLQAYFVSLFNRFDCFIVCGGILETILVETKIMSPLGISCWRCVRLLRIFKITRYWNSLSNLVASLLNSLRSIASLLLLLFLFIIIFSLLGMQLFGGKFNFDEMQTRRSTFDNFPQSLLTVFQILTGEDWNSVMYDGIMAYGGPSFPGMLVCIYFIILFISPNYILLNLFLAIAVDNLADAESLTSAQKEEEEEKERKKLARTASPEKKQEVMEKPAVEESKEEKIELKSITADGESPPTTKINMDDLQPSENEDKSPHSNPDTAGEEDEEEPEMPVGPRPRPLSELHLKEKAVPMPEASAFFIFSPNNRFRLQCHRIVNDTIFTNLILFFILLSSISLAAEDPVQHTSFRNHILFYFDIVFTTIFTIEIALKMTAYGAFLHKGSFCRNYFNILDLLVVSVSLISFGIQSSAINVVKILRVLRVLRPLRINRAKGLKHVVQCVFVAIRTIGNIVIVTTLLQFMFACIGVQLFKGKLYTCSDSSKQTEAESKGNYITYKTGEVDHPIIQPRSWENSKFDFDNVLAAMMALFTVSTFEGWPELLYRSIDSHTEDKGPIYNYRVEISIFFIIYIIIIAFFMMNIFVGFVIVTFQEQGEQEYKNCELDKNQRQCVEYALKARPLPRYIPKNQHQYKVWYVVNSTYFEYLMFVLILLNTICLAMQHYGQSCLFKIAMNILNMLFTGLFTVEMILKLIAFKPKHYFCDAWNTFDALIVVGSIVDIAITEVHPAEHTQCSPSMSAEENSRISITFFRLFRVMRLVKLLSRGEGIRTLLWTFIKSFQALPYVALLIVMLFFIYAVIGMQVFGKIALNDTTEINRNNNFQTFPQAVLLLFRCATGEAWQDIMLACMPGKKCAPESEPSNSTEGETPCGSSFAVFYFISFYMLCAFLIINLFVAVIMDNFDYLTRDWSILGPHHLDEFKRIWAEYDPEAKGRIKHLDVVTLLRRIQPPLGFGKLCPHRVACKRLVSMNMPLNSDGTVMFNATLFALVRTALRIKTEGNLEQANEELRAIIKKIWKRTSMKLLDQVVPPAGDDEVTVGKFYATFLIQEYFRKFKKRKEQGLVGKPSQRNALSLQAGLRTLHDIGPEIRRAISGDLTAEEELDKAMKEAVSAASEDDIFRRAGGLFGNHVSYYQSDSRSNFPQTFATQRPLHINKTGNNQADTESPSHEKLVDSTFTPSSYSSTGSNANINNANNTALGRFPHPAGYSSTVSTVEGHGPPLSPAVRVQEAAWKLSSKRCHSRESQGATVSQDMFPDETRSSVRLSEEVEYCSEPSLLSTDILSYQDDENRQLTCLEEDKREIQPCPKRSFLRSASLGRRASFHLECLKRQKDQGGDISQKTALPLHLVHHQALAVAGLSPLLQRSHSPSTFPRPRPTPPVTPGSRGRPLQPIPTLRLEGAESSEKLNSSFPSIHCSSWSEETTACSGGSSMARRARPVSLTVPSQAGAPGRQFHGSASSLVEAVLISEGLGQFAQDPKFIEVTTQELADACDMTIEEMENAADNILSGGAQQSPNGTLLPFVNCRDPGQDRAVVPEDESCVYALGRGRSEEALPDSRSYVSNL
Chain of Dopamine receptor D2, DRD2 (h) (P14416 whole entry): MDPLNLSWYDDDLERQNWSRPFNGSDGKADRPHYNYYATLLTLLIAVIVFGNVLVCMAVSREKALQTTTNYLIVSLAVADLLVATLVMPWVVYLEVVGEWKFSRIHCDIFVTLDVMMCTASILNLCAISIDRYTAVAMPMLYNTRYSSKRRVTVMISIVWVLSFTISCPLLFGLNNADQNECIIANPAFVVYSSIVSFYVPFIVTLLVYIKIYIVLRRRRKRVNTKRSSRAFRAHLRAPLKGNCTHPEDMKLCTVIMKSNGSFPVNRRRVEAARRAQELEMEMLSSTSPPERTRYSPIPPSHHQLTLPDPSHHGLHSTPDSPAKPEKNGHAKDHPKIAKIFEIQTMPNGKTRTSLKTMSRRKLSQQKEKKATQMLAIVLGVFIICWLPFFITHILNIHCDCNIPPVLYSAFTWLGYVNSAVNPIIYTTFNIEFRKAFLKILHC

With `O=S(=O)(O)NC1CCCCC1` [Cyclamate, Sodium cyclohexylsulfamate], the Specific binding is 0.6% in series [1]; -8.6% in series [2]; 19.1% in series [3]; 1.0% in series [4]; -4.4% in series [11]. Further, in [5], the “IPP screening %, Coactivator recruitment” value stood at 2.0%. Also, the “IPP screening %, Specific binding” value in series [6] came out at 21.0%. The “pod_cell_stress PoD” value in series [7] amounted to 480.52 µM. For the same compound, the “responding probes (with CDS > 0.5)” value in series [8] (HepG2) was 22; in series [9], 7; in [10], 18. For the same compound, the risk in series [12] was determined as 0. The “male monkeys showing testicular effects” value in series [13] is on record as 2/5. In addition, the “dietary level at which persistent diarrhoea was noted” value in series [14] was at least 141 mg/kg bw/day. Besides, the ADI in series [15] is on record as 7 mg/kg bw/day.

`CCN(CC)CCNC(=O)c1cc(Cl)c(N)cc1OC` [Metoclopramide, 4-Amino-5-chloro-N-[2-(diethylamino)ethyl]-2-methoxybenzamide]: the Specific binding in series [16] was -18.6%; in series [1], -1.0%; in series [2] (setting [26]), 29.4%; in series [3], 40.1%; in series [4], 6.5%. Also, the “IPP screening %, Coactivator recruitment” value in series [5] amounted to 1.0%. Moreover, the “IPP screening %, Specific binding” value in [6] amounted to 0.0%. Further, the “next lowest PoD, HepG2 HTTr” value in series [8] (BIFROST gene level PoD) amounted to 16 µM. Further, the “Reported AUC0-t” value was 325.9 ng·h/mL in series [17] (setting [27]); 968.3 ng·h/mL in [17] (setting [28]); 247.7 ng·h/mL in [17] (setting [29]); 142.87 ng·h/mL in series [17] (setting [30]); 604 ng·h/mL in series [17] (setting [31]); 359.8 ng·h/mL in [17] (setting [32]). The Reported cmax in series [17] (setting [27]) is recorded as 129.1 ng/mL; in series [17] (setting [28]), 201.3 ng/mL; in series [17] (setting [29]) it was 51.06 ng/mL; in series [17] (setting [30]) it was 39.948 ng/mL; in series [17] (setting [31]) it was 55.85 ng/mL; in series [17] (setting [32]), 75.62 ng/mL. Besides, the Reported tmax in [17] (setting [27]) is 4.56 min; in [17] (setting [28]), 2.52 min; in [17] (setting [29]), 44.8 min; in series [17] (setting [30]) it was 46.6 min; in series [17] (setting [31]), 121 min; in series [17] (setting [32]) it was 62.22 min. In addition, the “Intrinsic Liver Clearance” value in [18] (PBK level L2, taken or scaled from references (median where several), ref [6],[7],[10],[19]) is 33.81 L/h; in [18] (PBK level L3, scaled from references (median where several), ref [7],[10],[19]) it was 33.81 L/h. This compound came in with an IC50 in series [19] of 46 nM. Also, the risk worked out at 1 in series [20] (IV, High therapeutic, 30 mg/day, Exp3); 1 in series [20] (Oral, High therapeutic, 30 mg/day, Tablet, Exp2); 1 in [20] (Oral, Low therapeutic, 10 mg/day, Tablet, Exp1).

As to `CC(=O)Nc1ccc(O)cc1` [Paracetamol, N-(4-Hydroxyphenyl)acetamide], the Specific binding is -3.6% in series [1]; 8.7% in [2] (setting [26]); 34.9% in [3]; 6.7% in series [4]; -4.2% in series [11] (IPP screening at 100 uM, control CGS 19755). Moreover, the “IPP screening %, Coactivator recruitment” value in series [5] came to 1.0%. Further, in series [6], the “IPP screening %, Specific binding” value is listed as -2%. Moreover, the “pod_cell_stress PoD” value in series [7] is 40.132 µM. In addition, the “pod_httr_bifrost PoD” value in [8] (HepG2, HTTr BIFROST PoD) came to 9.465 µM; in series [9] (HTTr BIFROST PoD), 76.0572 µM; in [10] (HTTr BIFROST PoD) it was 4.261 µM. Besides, the “podl_path_minbmd PoD” value in series [8] (HepG2, HTTr minimum pathway BMD(L)) was 262.202 µM; in series [9] (HTTr minimum pathway BMD(L)), 322.442 µM; in [10] (HTTr minimum pathway BMD(L)), 184.341 µM. In series [21], this compound displayed a Peff of 3.56 cm/s x E-04. In addition, the AC50 in series [22] is 39.1 µM. The “PoD (LOEL)” value in [23] is listed as 30 mg/kg bw/day. The Fup in [24] is reported as 100%. In addition, in [25], the “Intrinsic Liver Clearance” value is given as 10.79 L/h. The “Risk Classification” value in series [20] (IV 4000 mg/day), in [20] (Oral 500 mg/day) and in series [20] (Oral 4000 mg/day) was “High risk” each time. Also, the risk is recorded as 1 in series [20] (IV, High therapeutic, 4g/day, Exp3); 1 in [20] (Oral, High therapeutic, 4000mg/day, Tablet, Exp1); 1 in series [20] (Oral, Low therapeutic, 500mg/day, Tablet, Exp2).
